The source of these data is ChEMBL document CHEMBL3856287, “Synthesis of novel tetrazole derivatives and evaluation of their antifungal activity” (Bioorg Med Chem, 2016).

Values after ≈ are worked out from the molar mass of the structure shown.

Broadly, the MFC is the smallest concentration meeting the test's criterion for killing the fungus. In general, MIC refers to the lowest concentration found to suppress growth.

Holding throughout (assay type): functional
The nature of test [1]: Antifungal activity against Colletotrichum coccodes MC1 assessed as radial growth inhibition at 32 ug/ml after 5 to 7 days relative to control.
Test [2] has as its system Candida albicans. Put plainly: Fungicidal activity against Candida albicans ATCC 90028 after 48 hrs by broth microdilution method. The settings on record: ATCC 90028, 48 h.
Test [3] is described as follows: Antifungal activity against Fusarium sambucinum MF1 assessed as radial growth inhibition at 32 ug/ml after 5 to 7 days relative to control.
In test [4] the test system is Candida albicans. Put plainly: Antifungal activity against Candida albicans ATCC 90028 assessed as growth inhibition after 48 hrs by broth microdilution method. The conditions noted are these: ATCC 90028, 48 h.
The nature of test [5]: Antifungal activity against Fusarium oxysporum MF5 assessed as radial growth inhibition at 32 ug/ml after 5 to 7 days relative to control.
Test [6] has as its system Aspergillus niger. Put plainly: Antifungal activity against Aspergillus niger ATCC 16404 assessed as radial growth inhibition at 32 ug/ml after 5 to 7 days relative to control. The conditions noted are these: read-out: GI.
A short description of test [7]: Antifungal activity against Fusarium oxysporum MF5 assessed as radial growth inhibition at 16 ug/ml after 5 to 7 days relative to control.
The test system of test [8] is Aspergillus niger. Put plainly: Antifungal activity against Aspergillus niger ATCC 16404 assessed as radial growth inhibition at 16 ug/ml after 5 to 7 days relative to control. The settings on record: read-out: GI.
The nature of test [9]: Antifungal activity against Fusarium sambucinum MF1 assessed as radial growth inhibition at 16 ug/ml after 5 to 7 days relative to control.
A short description of test [10]: Antifungal activity against Colletotrichum coccodes MC1 assessed as radial growth inhibition at 16 ug/ml after 5 to 7 days relative to control.

Take `OC(Cn1cncn1)(Cn1cncn1)c1ccc(F)cc1F` [FLUCONAZOLE]: the growth inhibition (GI) in [1] came to 100%; in test [3] it was 67.7%; in test [5], 17.6%. In the test on Candida albicans [2], the minimal fungicidal concentration (MFC) is 0.5 µg/mL (≈ 1.63 µM). Further, the MIC in the test with Candida albicans [4] was 0.25 µg/mL (≈ 0.816 µM). For the same compound, the inhibition of growth at 32 µg/mL in the test on Aspergillus niger [6] was determined as 52.9%.

Take `C[C@@H]1[C@H](O)[C@@H](C)/C=C/C=C/C=C/C=C/C=C/C=C/C=C/[C@H](O[C@@H]2O[C@H](C)[C@@H](O)[C@H](N)[C@@H]2O)C[C@@H]2O[C@](O)(C[C@@H](O)C[C@@H](O)[C@H](O)CC[C@@H](O)C[C@@H](O)CC(=O)O[C@H]1C)C[C@H](O)[C@H]2C(=O)O` [AMPHOTERICIN B]: the growth inhibition (GI) in test [7] was 77%; in test [9], 86%; in [10], 86.7%. Also, the inhibition of growth at 16 µg/mL in the test on Aspergillus niger [8] is 100%.
